Patent US20240287138A1, “CYCLIC PEPTIDES FOR INHIBITING TNF RECEPTOR 1 ACTIVITY” (Merck Sharp & Dohme LLC, priority 2023, published 2024)
Like-named read-outs stand apart in the source and are kept apart here. Numbered stars: 1 amine (or outer) side, 2 acyl side, 3 side chain; on linkers, the order of the positions; unused ones are H or OH. Bridge positions count the residues as written; N and C are the ends. Square brackets hold non-standard residues; d marks the D form. Peptide text beside a SMILES is read from it. * marks the point of attachment. Trp(βS-Me,7-OMe) = COc1cccc2c([C@H](C)[C@H](N)C(=O)O)c[nH]c12; Trp(1-CH2COOH) = N[C@@H](Cc1cn(CC(=O)O)c2ccccc12)C(=O)O; Phe(4-CH2CH2COOH) = N[C@@H](Cc1ccc(CCC(=O)O)cc1)C(=O)O; Phe(4-SO2NH2) = N[C@@H](Cc1ccc(S(N)(=O)=O)cc1)C(=O)O; Trp(7-CN) = N#Cc1cccc2c(C[C@H](N)C(=O)O)c[nH]c12; Trp(7-Cl) = N[C@@H](Cc1c[nH]c2c(Cl)cccc12)C(=O)O; X20 = O=C1NCc2ccc(C[C@H](N[*:1])C(=O)[*:2])cc21; Phe(3-CONH2) = NC(=O)c1cccc(C[C@H](N)C(=O)O)c1; Phe(4-CONH2) = NC(=O)c1ccc(C[C@H](N)C(=O)O)cc1; Phe(4-COOH) = N[C@@H](Cc1ccc(C(=O)O)cc1)C(=O)O; 4Pal(3S-Me) = C[C@@H](c1ccncc1)[C@H](N)C(=O)O; Trp(7-aza) = N[C@@H](Cc1c[nH]c2ncccc12)C(=O)O; dPro(trans-4-F) = O=C(O)[C@H]1C[C@H](F)CN1; Pip(5R-OH) = O=C(O)[C@@H]1CC[C@@H](O)CN1; X1 = O=C([C@@H]1CC[C@H](N[*:1])C1)[*:2]; Met(O2) = CS(=O)(=O)CC[C@H](N)C(=O)O; 4Pal = N[C@@H](Cc1ccncc1)C(=O)O; NMeE = CN[C@@H](CCC(=O)O)C(=O)O; dHyp = O=C(O)[C@H]1C[C@H](O)CN1; Ahp(2) = CCCCC[C@H](N)C(=O)O; NEtAla = CCN[C@@H](C)C(=O)O; αMeS = C[C@](N)(CO)C(=O)O; Carboxymethyl = O=C(O)C*; Nle = CCCC[C@H](N)C(=O)O; Sar = CNCC(=O)O

Experiments:
[1] = biological target: T1, human TNFR1 extracellular domain (ECD) protein (Homo sapiens, UniProt P19438); experiment: SPR binding affinity to captured human TNFR1 ECD
T1 construct: HRV 3C protease cleavage site (C); 6His (C, cleaved yes); made in house; host or cells: Sf21 insect cells (baculovirus), secreted
T1 sequence (P19438 30-211): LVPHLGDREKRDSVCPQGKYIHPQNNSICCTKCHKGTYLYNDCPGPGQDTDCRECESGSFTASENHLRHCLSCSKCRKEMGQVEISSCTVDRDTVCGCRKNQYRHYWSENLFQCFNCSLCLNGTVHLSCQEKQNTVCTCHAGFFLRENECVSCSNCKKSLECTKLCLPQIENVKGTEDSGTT
Outline: (§1)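 Peptide binding kinetics read by SPR in HEPES pH 7.4 running buffer with 2% DMSO, with TNFR2 ECD tested in parallel for off-target binding. Receptor ECDs, insect-cell expressed and biotinylated at C-terminal avi-tag, were captured via streptavidin. KA derived from association and dissociation rate constants.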

human TNFR2 ECD protein = biological target: T2, human TNFR2 ECD protein (Homo sapiens, UniProt P20333); experiment: SPR off-target binding (selectivity) to human TNFR2 ECD
T2 construct: HRV 3C protease cleavage site (C); 6His (C, cleaved yes); made in house; host or cells: Sf21 insect cells (baculovirus), secreted
T2 sequence (P20333 23-257): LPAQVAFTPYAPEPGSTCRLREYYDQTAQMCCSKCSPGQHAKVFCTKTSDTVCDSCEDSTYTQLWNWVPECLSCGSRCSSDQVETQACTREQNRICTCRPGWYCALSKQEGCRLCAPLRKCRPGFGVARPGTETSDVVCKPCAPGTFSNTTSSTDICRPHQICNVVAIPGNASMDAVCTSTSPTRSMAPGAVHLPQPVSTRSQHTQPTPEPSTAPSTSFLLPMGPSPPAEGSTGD
Outline: as §1

[2] = biotinylated human TNFR1 ECD on streptavidin chip, from kon and koff, read-out: SPR hTNFR1 KD
[3] = biotinylated human TNFR2 ECD on streptavidin chip, read-out: SPR hTNFR2 KD

| SMILES | Kd [1, 2] [nM] | Kd (human TNFR2 ECD protein; [3]) [nM] | Kd [1] [nM] | Kd (human TNFR2 ECD protein) [nM] |
| --- | --- | --- | --- | --- |
| CCCC[C@@H]1NC(=O)[C@@H]2CC[C@@H](C2)NC(=O)[C@H]([C@@H](C)c2c[nH]c3c(OC)cccc23)NC(=O)CN(C)C(=O)[C@H](Cc2ccc(C(N)=O)cc2)NC(=O)[C@H](Cc2ccc(C(N)=O)cc2)NC(=O)[C@](C)(CO)NC(=O)[C@H](Cc2c[nH]c3c(C#N)cccc23)NC(=O)[C@H](Cc2ccc3c(c2)C(=O)NC3)NC(=O)[C@H](CC(N)=O)NC(=O)[C@H]2C[C@H](OCC(=O)O)CN2C(=O)[C@H](Cc2cn(CC(=O)O)c3ccccc23)NC(=O)[C@@H]2CC[C@@H](O)CN2C(=O)[C@H](Cc2ccncc2)NC1=O [SEQ ID NO. 22] (cyclo([4Pal][Pip(5R-OH)][Trp(1-CH2COOH)][dHyp](Carboxymethyl)N[X20][Trp(7-CN)][αMeS][Phe(4-CONH2)][Phe(4-CONH2)][Sar][Trp(βS-Me,7-OMe)][X1][Nle])) | 0.09 | > 1000 |  |  |
| CCCCC[C@@H]1NC(=O)[C@@H]2CC[C@@H](C2)NC(=O)[C@H]([C@@H](C)c2c[nH]c3c(OC)cccc23)NC(=O)CN(C)C(=O)[C@H](Cc2ccc(C(N)=O)cc2)NC(=O)[C@H](Cc2ccc(C(N)=O)cc2)NC(=O)[C@](C)(CO)NC(=O)[C@H](Cc2c[nH]c3c(C#N)cccc23)NC(=O)[C@H](Cc2ccc(C(=O)O)cc2)NC(=O)[C@H](CC(N)=O)NC(=O)[C@H]2C[C@H](O)CN2C(=O)[C@H](Cc2c[nH]c3ccccc23)NC(=O)[C@H](CCS(C)(=O)=O)NC(=O)[C@H]([C@@H](C)c2ccncc2)NC1=O [SEQ ID NO. 49] (cyclo([Ahp(2)][4Pal(3S-Me)][Met(O2)]W[dHyp]N[Phe(4-COOH)][Trp(7-CN)][αMeS][Phe(4-CONH2)][Phe(4-CONH2)][Sar][Trp(βS-Me,7-OMe)][X1])) |  |  | 0.08 | > 1000 |
| CCCC[C@@H]1NC(=O)[C@@H]2CC[C@@H](C2)NC(=O)[C@H]([C@@H](C)c2c[nH]c3c(OC)cccc23)NC(=O)CN(C)C(=O)[C@H](Cc2ccc(CCC(=O)O)cc2)NC(=O)[C@H](Cc2ccc(S(N)(=O)=O)cc2)NC(=O)[C@](C)(CO)NC(=O)[C@H](Cc2c[nH]c3c(C#N)cccc23)NC(=O)[C@H](Cc2ccc(OCC(=O)O)cc2)NC(=O)[C@H](CC(N)=O)NC(=O)[C@H]2C[C@H](O)CN2C(=O)[C@H](Cc2c[nH]c3ncccc23)NC(=O)[C@@H]2CC[C@@H](O)CN2C(=O)[C@H](Cc2ccncc2)NC1=O [SEQ ID NO. 30] (cyclo([4Pal][Pip(5R-OH)][Trp(7-aza)][dHyp]NY(Carboxymethyl)[Trp(7-CN)][αMeS][Phe(4-SO2NH2)][Phe(4-CH2CH2COOH)][Sar][Trp(βS-Me,7-OMe)][X1][Nle])) | 0.05 | > 1000 |  |  |
| CCCC[C@@H]1NC(=O)CSC[C@@H](C(N)=O)NC(=O)[C@H]([C@@H](C)c2c[nH]c3c(OC)cccc23)NC(=O)CN(C)C(=O)[C@H](Cc2ccc(O)cc2)NC(=O)[C@H](Cc2ccc(C(=O)O)cc2)NC(=O)[C@](C)(CO)NC(=O)[C@H](Cc2c[nH]c3c(Cl)cccc23)NC(=O)[C@H](Cc2ccncc2)NC(=O)[C@H](CC(N)=O)NC(=O)[C@H](CCC(=O)O)N(C)C(=O)[C@H](Cc2c[nH]c3ncccc23)NC(=O)[C@H](C)N(CC)C(=O)[C@H](Cc2ccncc2)NC1=O [SEQ ID NO. 38] ({CH2CO}-[Nle][4Pal][NEtAla][Trp(7-aza)][NMeE]N[4Pal][Trp(7-Cl)][αMeS][Phe(4-COOH)]Y[Sar][Trp(βS-Me,7-OMe)]C-NH2; thioether N-14) |  |  | 0.34 | > 1000 |
| CCCC[C@@H]1NC(=O)[C@@H]2CC[C@@H](C2)NC(=O)[C@H]([C@@H](C)c2c[nH]c3c(OC)cccc23)NC(=O)CN(C)C(=O)[C@H](Cc2cccc(C(N)=O)c2)NC(=O)[C@H](Cc2ccc(C(N)=O)cc2)NC(=O)[C@](C)(CO)NC(=O)[C@H](Cc2c[nH]c3c(C#N)cccc23)NC(=O)[C@H](Cc2ccc(C(=O)O)cc2)NC(=O)[C@H](CC(N)=O)NC(=O)[C@H]2C[C@H](F)CN2C(=O)[C@H](Cc2c[nH]c3ccccc23)NC(=O)[C@@H]2CC[C@@H](O)CN2C(=O)[C@H](Cc2ccncc2)NC1=O [SEQ ID NO. 21] (cyclo([4Pal][Pip(5R-OH)]W[dPro(trans-4-F)]N[Phe(4-COOH)][Trp(7-CN)][αMeS][Phe(4-CONH2)][Phe(3-CONH2)][Sar][Trp(βS-Me,7-OMe)][X1][Nle])) |  |  | 0.03 | > 1000 |
